Reference: patent publication US20060004197A1, “Sulfonamide-based compounds as protein tyrosine kinase inhibitors” (priority 2004, published 2006)
One block for each compound: values may come before it.

Legend:
Type in all cases: biochemical
Recombinant human Src = molecular target: T1, Recombinant human Src (Homo sapiens, UniProt P12931); assay: Src tyrosine kinase activity, poly E4Y / 32P-ATP phosphorylation assay
T1 construct: made in house; host or cells: baculovirus-insect cell system

FGF receptor (FGFr) = assay: FGFr tyrosine kinase activity, poly E4Y / 32P-ATP phosphorylation assay
Recombinant Csk = Recombinant Csk (Homo sapiens, UniProt P41240); assay: Csk tyrosine kinase activity, poly E4Y / 32P-ATP phosphorylation assay
[1] = Table 2, Formula I compounds, NI = no inhibition at 100 μg/mL
[2] = poly E4Y / 32P-ATP, Formula IV compounds
[3] = Table 4, Formula III compounds, NI = no inhibition at 100 μg/mL
[4] = Table 3, Formula II compounds, NI = no inhibition at 100 μg/mL

T1 sequence (P12931 whole entry): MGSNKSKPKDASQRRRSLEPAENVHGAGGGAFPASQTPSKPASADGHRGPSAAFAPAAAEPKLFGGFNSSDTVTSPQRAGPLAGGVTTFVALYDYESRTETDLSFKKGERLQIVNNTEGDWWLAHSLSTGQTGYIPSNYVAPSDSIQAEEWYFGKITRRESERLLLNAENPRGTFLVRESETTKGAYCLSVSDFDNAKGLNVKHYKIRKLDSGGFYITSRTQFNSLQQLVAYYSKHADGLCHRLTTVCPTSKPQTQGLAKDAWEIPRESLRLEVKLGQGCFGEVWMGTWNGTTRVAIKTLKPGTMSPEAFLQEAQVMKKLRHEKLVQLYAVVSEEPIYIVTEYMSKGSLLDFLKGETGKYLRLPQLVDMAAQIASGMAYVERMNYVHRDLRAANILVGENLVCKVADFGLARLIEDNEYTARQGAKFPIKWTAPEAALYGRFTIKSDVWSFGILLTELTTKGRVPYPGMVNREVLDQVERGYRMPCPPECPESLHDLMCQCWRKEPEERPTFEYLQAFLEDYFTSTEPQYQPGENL

Structure (SMILES): COc1ccccc1Sc1cc(NS(=O)(=O)c2ccc(C)cc2)c(NS(=O)(=O)c2ccc(C)cc2)cc1[N+](=O)[O-] [Compound 4b, N-[4-(2-methoxy-phenylsulfanyl)-5-nitro-2-(4-toluenesulfonylamino)-phenyl]-4-toluenesulfonamide]
- IC50 (Recombinant human Src; [1]): 7 µM
- IC50 (FGF receptor (FGFr); [1]): 20 µM
- IC50 (Recombinant Csk; [1]): 15 µM

Structure (SMILES): Cc1ccc(S(=O)(=O)Nc2cc([N+](=O)[O-])c(Sc3ccc(Cl)cc3)cc2N)cc1 [Compound 55, N-[2-amino-4-(4-chloro-phenylsulfanyl)-5-nitro-phenyl]-4-toluenesulfonamide]
- IC50 (Recombinant human Src; [2]): 33 µM
- IC50 (FGF receptor (FGFr); [2]): 2.2 µM
- IC50 (Recombinant Csk; [2]): > 222 µM

Structure (SMILES): Cc1ccc(S(=O)(=O)Nc2cc(N)c(Sc3ccc(Cl)cc3)cc2NS(=O)(=O)c2ccc(C)cc2)cc1 [Compound 23, N-[5-amino-4-(4-chloro-phenylsulfanyl)-2-(4-toluenesulfonylamino)-phenyl]-4-toluenesulfonamide]
- IC50 (Recombinant human Src; [3]): 58 µM
- IC50 (FGF receptor (FGFr); [3]): 56 µM
- IC50 (Recombinant Csk; [3]): 280 µM

Structure (SMILES): CC(=O)Nc1cc(NS(=O)(=O)c2ccc(C)cc2)c(NS(=O)(=O)c2ccc(C)cc2)cc1Sc1ccc(Cl)cc1 [Compound 24, N-[2-(4-chloro-phenylsulfanyl)-4,5-bis-(4-toluenesulfonylamino)-phenyl]-acetamide]
- IC50 (Recombinant human Src; [3]): > 162 µM
- IC50 (FGF receptor (FGFr); [3]): 515 µM
- IC50 (Recombinant Csk; [3]): > 162 µM

Structure (SMILES): Cc1ccc(S(=O)(=O)N(C)c2cc(Sc3ccc(Cl)cc3)c([N+](=O)[O-])cc2N(C)S(=O)(=O)c2ccc(C)cc2)cc1 [Compound 53, N-[4-(4-chloro-phenylsulfanyl)-5-nitro-2-(4-toluenesulfonyl-methyl-amino)-phenyl]-N-methyl-4-toluenesulfonamide]
- IC50 (Recombinant human Src; [2]): 388 µM
- IC50 (FGF receptor (FGFr); [2]): 254 µM
- IC50 (Recombinant Csk; [2]): 261 µM

Structure (SMILES): Cc1ccc(Sc2cc(NS(=O)(=O)c3ccc(C)cc3)c(NS(=O)(=O)c3ccc(C)cc3)cc2[N+](=O)[O-])cc1 [Compound 4i, N-[5-nitro-2-(4-toluenesulfonylamino)-4-(p-tolylsulfanyl)-phenyl]-4-toluenesulfonamide]
- IC50 (Recombinant human Src; [1]): 1.7 µM
- IC50 (FGF receptor (FGFr); [1]): 5.1 µM
- IC50 (Recombinant Csk; [1]): 10.3 µM

Structure (SMILES): COc1ccc(Oc2ccc(NS(=O)(=O)c3ccc(C)cc3)c(OCC(=O)O)c2)cc1 [Compound 65, [5-(4-methoxy-phenoxy)-2-(4-toluenesulfonylamino)-phenoxy]-acetic acid]
- IC50 (Recombinant human Src; [2]): 169 µM
- IC50 (μM) FGFr (FGF receptor (FGFr); [2]): NI (NI = no inhibition at 100 μg/mL)
- IC50 (Recombinant Csk; [2]): > 225 µM

Structure (SMILES): Cc1ccc(S(=O)(=O)Nc2cc(SCc3ccco3)c([N+](=O)[O-])cc2NS(=O)(=O)c2ccc(C)cc2)cc1 [Compound 4p, N-[4-(furan-2-ylmethylsulfanyl)-5-nitro-2-(4-toluenesulfonylamino)-phenyl]-4-toluenesulfonamide]
- IC50 (Recombinant human Src; [1]): 1.6 µM
- IC50 (FGF receptor (FGFr); [1]): 7.3 µM
- IC50 (Recombinant Csk; [1]): 11.3 µM

Structure (SMILES): Cc1ccc(S(=O)(=O)Nc2cc(Sc3cccc(C)c3)c([N+](=O)[O-])cc2NS(=O)(=O)c2ccc(C)cc2)cc1 [Compound 4k, N-[5-nitro-2-(4-toluenesulfonylamino)-4-(m-tolylsulfanyl)-phenyl]-4-toluenesulfonamide]
- IC50 (Recombinant human Src; [1]): 1.9 µM
- IC50 (FGF receptor (FGFr); [1]): 3.1 µM
- IC50 (Recombinant Csk; [1]): 9.4 µM

Structure (SMILES): COc1ccc(Oc2ccc(NS(=O)(=O)c3ccc(C)cc3)c(OCC(O)CO)c2)cc1 (stereo not drawn) [Compound 64, N-[2-(2,3-dihydroxy-propoxy)-4-(4-methoxy-phenoxy)-phenyl]-4-toluenesulfonamide]
- IC50 (Recombinant human Src; [2]): 189 µM
- IC50 (μM) FGFr (FGF receptor (FGFr); [2]): NI (NI = no inhibition at 100 μg/mL)
- IC50 (Recombinant Csk; [2]): > 218 µM

Structure (SMILES): COc1ccc(Oc2ccc(N(C)S(=O)(=O)c3ccc(C)cc3)c(OC)c2)cc1 [Compound 61, N-[2-methoxy-4-(4-methoxy-phenoxy)-phenyl]-N-methyl-4-toluenesulfonamide]
- IC50 (Recombinant human Src; [2]): 177 µM
- IC50 (μM) FGFr (FGF receptor (FGFr); [2]): NI (NI = no inhibition at 100 μg/mL)
- IC50 (Recombinant Csk; [2]): > 242 µM

Structure (SMILES): Cc1ccc(S(=O)(=O)Nc2cc(Sc3cccc(Cl)c3)c([N+](=O)[O-])cc2NS(=O)(=O)c2ccc(C)cc2)cc1 [Compound 4g, N-[4-(3-chloro-phenylsulfanyl)-5-nitro-2-(4-toluenesulfonylamino)-phenyl]-4-toluenesulfonamide]
- IC50 (Recombinant human Src; [1]): 1.6 µM
- IC50 (FGF receptor (FGFr); [1]): 5.8 µM
- IC50 (Recombinant Csk; [1]): 9.1 µM

Structure (SMILES): COc1ccc(Oc2ccc(NS(=O)(=O)c3ccc(C)cc3)c(OCCCO)c2)cc1 [Compound 63, N-[2-(3-hydroxy-propoxy)-4-(4-methoxy-phenoxy)-phenyl]-4-toluenesulfonamide]
- IC50 (Recombinant human Src; [2]): 212 µM
- IC50 (μM) FGFr (FGF receptor (FGFr); [2]): NI (NI = no inhibition at 100 μg/mL)
- IC50 (Recombinant Csk; [2]): > 225 µM

Structure (SMILES): Cc1ccc(S(=O)(=O)Nc2cc(Sc3ccc(F)cc3)c([N+](=O)[O-])cc2NS(=O)(=O)c2ccc(C)cc2)cc1 [Compound 4h, N-[4-(4-fluoro-phenylsulfanyl)-5-nitro-2-(4-toluenesulfonylamino)-phenyl]-4-toluenesulfonamide]
- IC50 (Recombinant human Src; [1]): 1.8 µM
- IC50 (FGF receptor (FGFr); [1]): 7.8 µM
- IC50 (Recombinant Csk; [1]): 8.6 µM

Structure (SMILES): Cc1ccc(S(=O)(=O)Nc2ccc([N+](=O)[O-])c(Sc3ccc(Cl)cc3)c2)cc1 [Compound 70, N-[3-(4-chloro-phenylsulfanyl)-4-nitro-phenyl]-4-toluenesulfonamide]
- IC50 (Recombinant human Src; [2]): 599 µM
- IC50 (FGF receptor (FGFr); [2]): 251 µM
- IC50 (Recombinant Csk; [2]): 369 µM

Further lines, results first:

- IC50 (Recombinant human Src; [4]): 18.5 µM
- IC50 (FGF receptor (FGFr); [4]): 45 µM
- IC50 (Recombinant Csk; [4]): > 168 µM
Structure (SMILES): COc1ccc(Oc2ccc(NS(=O)(=O)c3ccc(C(C)C)cc3)c(NS(=O)(=O)c3ccc(C(C)C)cc3)c2)cc1 [Compound 12b, 4-isopropyl-N-[2-(4-isopropyl-benzenesulfonylamino)-4-(4-methoxy-phenoxy)-phenyl]-benzenesulfonamide]

- IC50 (Recombinant human Src; [4]): 19 µM
- IC50 (FGF receptor (FGFr); [4]): 21 µM
- IC50 (Recombinant Csk; [4]): > 153 µM
Structure (SMILES): Cc1ccc(S(=O)(=O)Nc2ccc(N3CCN(S(=O)(=O)c4ccc(C)cc4)CC3)cc2NS(=O)(=O)c2ccc(C)cc2)cc1 [Compound 17e, N-{2-(4-toluenesulfonylamino)-4-[4-(toluene-4-sulfonyl)-piperazin-1-yl]-phenyl}-4-toluenesulfonamide]

- IC50 (Recombinant human Src; [4]): 9 µM
- IC50 (FGF receptor (FGFr); [4]): 36 µM
- IC50 (Recombinant Csk; [4]): 98 µM
Structure (SMILES): COc1ccc(Oc2ccc(NS(=O)(=O)c3cccc4ccccc34)c(NS(=O)(=O)c3cccc4ccccc34)c2)cc1 [Compound 12h, naphthalene-1-sulfonic acid [4-(4-methoxy-phenoxy)-2-(naphthalen-1-yl-sulfonylamino)-phenyl]-amide]

- IC50 (Recombinant human Src; [4]): 38 µM
- IC50 (FGF receptor (FGFr); [4]): 50 µM
- IC50 (Recombinant Csk; [4]): > 199 µM
Structure (SMILES): Cc1ccc(S(=O)(=O)Nc2ccc(N3CCOCC3)cc2NS(=O)(=O)c2ccc(C)cc2)cc1 [Compound 17f, N-[4-(morpholin-4-yl)-2-(4-toluenesulfonylamino)-phenyl]-4-toluenesulfonamide]

- IC50 (Recombinant human Src; [4]): 12 µM
- IC50 (FGF receptor (FGFr); [4]): 38 µM
- IC50 (Recombinant Csk; [4]): 104 µM
Structure (SMILES): Cc1ccc(S(=O)(=O)Nc2ccc(Oc3ccc4ccccc4c3)cc2NS(=O)(=O)c2ccc(C)cc2)cc1 [Compound 12u, N-[4-(naphthalene-2-yloxy)-2-(4-toluenesulfonylamino)-phenyl]-4-toluenesulfonamide]

- IC50 (Recombinant human Src; [4]): 8.6 µM
- IC50 (FGF receptor (FGFr); [4]): 19 µM
- IC50 (Recombinant Csk; [4]): 95 µM
Structure (SMILES): COc1ccc(Oc2ccc(NS(=O)(=O)c3ccc(Cl)cc3)c(NS(=O)(=O)c3ccc(Cl)cc3)c2)cc1 [Compound 12c, 4-chloro-N-[2-(4-chloro-benzenesulfonylamino)-4-(4-methoxy-phenoxy)-phenyl]-benzenesulfonamide]

- IC50 (Recombinant human Src; [4]): 28 µM
- IC50 (FGF receptor (FGFr); [4]): 26 µM
- IC50 (Recombinant Csk; [4]): > 186 µM
Structure (SMILES): COc1ccc(Oc2ccc(NS(=O)(=O)c3ccc(C)cc3)c(NS(=O)(=O)c3ccc(C)cc3)c2)cc1 [Compound 12p, N-[5-(4-methoxy-phenoxy)-2-(4-toluenesulfonylamino)-phenyl]-4-toluenesulfonamide]

- IC50 (Recombinant human Src; [4]): 6.7 µM
- IC50 (FGF receptor (FGFr); [4]): 10.6 µM
- IC50 (Recombinant Csk; [4]): 77 µM
Structure (SMILES): Cc1ccc(S(=O)(=O)Nc2ccc(Oc3ccc(CC(=O)O)cc3)cc2NS(=O)(=O)c2ccc(C)cc2)cc1 [Compound 12aa, {4-[3,4-bis(4-toluenesulfonylamino)-phenoxy]-phenyl}-acetic acid]

- IC50 (Recombinant human Src; [4]): 42 µM
- IC50 (FGF receptor (FGFr); [4]): 91 µM
- IC50 (Recombinant Csk; [4]): > 189 µM
Structure (SMILES): Cc1ccc(S(=O)(=O)Nc2ccc(OCC3CCCCC3)cc2NS(=O)(=O)c2ccc(C)cc2)cc1 [Compound 15f, N-[4-cyclohexylmethoxy-2-(4-toluenesulfonylamino)-phenyl]-4-toluenesulfonamide]

- IC50 (Recombinant human Src; [4]): 15 µM
- IC50 (FGF receptor (FGFr); [4]): 132 µM
- IC50 (Recombinant Csk; [4]): > 181 µM
Structure (SMILES): COc1ccc(COc2ccc(NS(=O)(=O)c3ccc(C)cc3)c(NS(=O)(=O)c3ccc(C)cc3)c2)cc1 [Compound 15e, N-[4-(4-methoxy-benzyloxy)-2-(4-toluenesulfonylamino)-phenyl]-4-toluenesulfonamide]

- IC50 (Recombinant human Src; [4]): 69 µM
- IC50 (FGF receptor (FGFr); [4]): 145 µM
- IC50 (Recombinant Csk; [4]): > 224 µM
Structure (SMILES): COc1ccc(NS(=O)(=O)c2ccc(C)cc2)c(NS(=O)(=O)c2ccc(C)cc2)c1 [Compound 12v, N-[4-methoxy-2-(4-toluenesulfonylamino)-phenyl]-4-toluenesulfonamide]

- IC50 (Recombinant human Src; [4]): 19 µM
- IC50 (FGF receptor (FGFr); [4]): 46 µM
- IC50 (Recombinant Csk; [4]): > 144 µM
Structure (SMILES): COc1ccc(Oc2ccc(NS(=O)(=O)c3ccc(Oc4ccccc4)cc3)c(NS(=O)(=O)c3ccc(Oc4ccccc4)cc3)c2)cc1 [Compound 12e, N-[4-(4-methoxy-phenoxy)-2-(4-phenoxy-benzenesulfonylamino)-phenyl]-4-phenoxy-benzenesulfonamide]

- IC50 (Recombinant human Src; [4]): 14 µM
- IC50 (FGF receptor (FGFr); [4]): 88 µM
- IC50 (Recombinant Csk; [4]): > 180 µM
Structure (SMILES): Cc1ccc(S(=O)(=O)Nc2ccc(OCc3ccc(Cl)cc3)cc2NS(=O)(=O)c2ccc(C)cc2)cc1 [Compound 15b, N-[4-(4-chloro-benzyloxy)-2-(4-toluenesulfonylamino)-phenyl]-4-toluenesulfonamide]

- IC50 (Recombinant human Src; [4]): 51 µM
- IC50 (FGF receptor (FGFr); [4]): 3.1 µM
- IC50 (Recombinant Csk; [4]): > 207 µM
Structure (SMILES): Cc1ccc(S(=O)(=O)Nc2ccc(-n3ccnc3)cc2NS(=O)(=O)c2ccc(C)cc2)cc1 [Compound 17d, N-[4-(imidazol-1-yl)-2-(4-toluenesulfonylamino)-phenyl]-4-toluenesulfonamide]
